In ChEMBL document CHEMBL1137678, “Comparative study of the trypanocidal activity of the methyl 1-nitrophenyl-1,2,3,4-9H-tetrahydro-beta-carboline-3-carboxylate derivatives and benznidazole using theoretical calculations and cyclic voltammetry” (Eur J Med Chem, 2009):

What was measured:
Trypanosoma cruzi = test: Antitrypanosomal activity against epimastigotes of Trypanosoma cruzi Y after 96 hrs by Neubauer haemocytometer; assay type: functional, organism-based
[1] = Selectivity index, ratio of CC50 for mouse J774.G8 cells to IC50 for epimastigotes of Trypanosoma cruzi Y; assay type: functional
[2] = Selectivity index, ratio of CC50 for monkey LLC-MK2 cells to IC50 for epimastigotes of Trypanosoma cruzi Y; assay type: functional

SMILES	IC50 (Trypanosoma cruzi)	Selectivity Index [1]	Selectivity Index [2]
COC(=O)[C@@H]1Cc2c([nH]c3ccccc23)[C@@H](c2ccc([N+](=O)[O-])cc2)N1 (relative stereo)	> 100 µM		
COC(=O)[C@@H]1Cc2c([nH]c3ccccc23)[C@H](c2ccc([N+](=O)[O-])cc2)N1 (relative stereo)	42.7 µM		
COC(=O)[C@@H]1Cc2c([nH]c3ccccc23)[C@@H](c2cccc([N+](=O)[O-])c2)N1 (relative stereo)	22.2 µM	35.7	25.6
COC(=O)[C@@H]1Cc2c([nH]c3ccccc23)[C@H](c2cccc([N+](=O)[O-])c2)N1 (relative stereo)	93.5 µM		
